Reference: patent US5776970A, “Tryptophan derivatives as protein tyrosine kinase blockers and their use in the treatment of neoplastic diseases” (Yeda Research and Development Co. Ltd., priority 1994, dated 1998)
Converted amounts (≈) assume the structure as drawn.

How the values were obtained:
[1] = target: insulin receptor tyrosine kinase (InsRTK) (Rattus norvegicus, UniProt P15127); assay: PolyGlu4 Tyr phosphorylation by partially purified (wheat-germ-agglutinin purified) rat liver insulin receptor, cell-free; assay type: biochemical; parameters: wheat-germ-agglutinin purified rat liver insulin receptor; from tissue; host or cells: rat liver (wheat-germ-agglutinin purified)
Method: An assay of PolyGlu4 Tyr phosphorylation by partially purified insulin receptor was run for 30 min at 22° C. in 60 μl of 50 mM Hepes (pH 7.4)-0.1% Triton X-100 containing wheat-germ-agglutinin purified rat liver insulin receptor (1 μg protein), MgCl2 25 mM; MnCl2, 1 mM, ATP 17 μM, insulin 0.1 μM, PolyGlu4 Tyr, 0.17 mg/ml and the indicated concentrations in FIG. 1 of CBZ-DNPS-TRP-TAU. Phosphotyrosine content in PolyGlu4 Tyr was determined by a radioimmunoassay procedure (Shisheva et al., 1991). […] The inhibitory potency of other derivatives of formula I on InsRTK-catalyzed PolyGlu4 Tyr phosphorylation in cell-free experiments was determined. […] For comparison, the IC50 values for AC-TRP-TAU and L-tryptophan are 5 mM and >30 mM, respectively.
(§1) Various derivatives according to the invention in which R^1 is benzyloxycarbonyl (CBZ) or t-butoxycarbonyl (t-Boc), R^2 is --SO3 H or --PO3 H, n is 1,2 or 3, and R^3 is H, 2-nitrophenylthio (NPS) or 2,4-dinitrophenylthio (DNPS) were prepared and examined in cell-free and intact cell systems. The cell-free assay is PolyGlu4 Tyr phosphorylation by partially purified insulin receptor as described in Example 3. The assay in intact cells (namely, lipogenesis) was carried out as described in Example 4.

[2] = system: murine T-cell lymphoma (LB3); assay: insulin-dependent proliferation of murine T-cell lymphoma (LB3), thymidine incorporation; assay type: cell-based
Method: (§2) LB cells were removed from the peritoneal cavity of BALB/c mice, washed and resuspended in RPMI-1640. Then a continuous line designated LB3 was established in "LB medium" (50% RPMI-1640 plus 50% DCCM-1 in 10% fetal calf serum (FCS)). The LB3 cells were incubated (37° C., 5% CO2) in microplate wells (Nunc, Roskilde, Denmark) with 0.2 ml RPMI-1640 alone and in the same medium containing insulin, fetal calf serum (FCS) or both, and different concentrations of the compound CBZ-DNPS-TRP-TAU as indicated in FIG. 3. Proliferation capacity was determined by thymidine incorporation (^3 H-TdR, 1 μCi/well, specific activity 5 Ci/mM), added to the cells 24 hours later. In a typical experiment, cpm of ^3 H-thymidine incorporated into 30,000 cells was 12-14 fold higher in the presence of insulin or other mitogens than in their absence.

[3] = system: isoproterenol-mediated lipolysis; assay: isoproterenol-mediated lipolysis in rat adipocytes (glycerol release); assay type: cell-based
Method: In general there are two classes of protein kinases (PKs) in mammalian tissues: (a) PKs which phosphorylate tyrosine moieties in proteins (to phosphotyrosine), and (b) PKs which phosphorylate serine and threonine moieties (to phosphoserine and phosphotreonine). […] An example for such a metabolic effect is lipolysis which depends on protein kinase A. Rat adipocytes (prepared by the method of Rodbell, 1964) were incubated with isoproterenol alone (1 μM) or isoproterenol with CBZ-DNPS-TRP-TAU (200 μM) for one hour at 37° C. The amount of glycerol released from the cells was then determined by spectroscopic procedure (Shechter, 1982).

[4] = system: vanadate-stimulated lipogenesis in rat adipocytes; assay: vanadate-stimulated lipogenesis in rat adipocytes; assay type: cell-based; conditions: Adipocyte, intact rat adipocytes, read-out: IC50, insulin-like effects of vanadate ions (lipogenesis)
[5] = system: insulin-stimulated lipogenesis in rat adipocytes; assay: insulin-stimulated lipogenesis in rat adipocytes ([U-14C]glucose incorporation); assay type: cell-based; conditions: Adipocyte; intact rat adipocytes; insulin 100 ng/ml; 20 min pre-incubation, 60 min at 37° C.; read-out: IC50, insulin-dependent lipogenesis
Method: The fat pads of three rats were cut into small pieces with scissors and digested in 3 ml of Krebs-Ringer-Bicarbonate (KRB)-buffer containing 0.7% bovine serum albumin (BSA) (pH 7.4) with collagenase (1 mg/ml). […] Five ml of buffer was then added, and the cells were squeezed through a mesh screen. The cells were then allowed to stand for several minutes (in a 15 ml plastic test tube at room temperature, floating) and the buffer underneath was removed. This procedure (suspension, floating and removal of buffer underneath) was repeated three times. […] Fat cell suspensions were pre-incubated for 20 min at 37° C. with increasing concentrations of the inhibitors. Results are expressed in FIG. 2 as the percent of maximal stimulation at the indicated concentrations of inhibitors.

rat adipocytes = assay: permeability into cell interiors (intact cell system, lipogenesis); assay type: cell-based; conditions: graded in words
Method: Rat adipocytes were prepared essentially by the method of Rodbell, 1964. The fat pads of three rats were cut into small pieces with scissors and digested in 3 ml of Krebs-Ringer-Bicarbonate (KRB)-buffer containing 0.7% bovine serum albumin (BSA) (pH 7.4) with collagenase (1 mg/ml). The digestion was performed in a 25 ml flexible plastic bottle under an atmosphere of carbogen (95% O2, 5% CO2) for 40 min at 37° C. with vigorous shaking. Five ml of buffer was then added, and the cells were squeezed through a mesh screen. The cells were then allowed to stand for several minutes (in a 15 ml plastic test tube at room temperature, floating) and the buffer underneath was removed. This procedure (suspension, floating and removal of buffer underneath) was repeated three times. For [^14 C-U]glucose incorporation (lipogenesis), the fat cell suspensions (3×10^5 cells/ml) were divided into plastic vials (0.5 ml per vial) and incubated for 60 min at 37° C. under an atmosphere of 95% O2, 5% CO2, with 0.2 mM [U-^14 C]glucose, in either the presence or absence of insulin (100 ng/ml) and the indicated concentrations in FIG. 2 of CBZ-DNPS-TRP-TAU. The reaction was terminated by adding toluene-based scintillation fluid (1.0 ml per vial) and the extracted lipids were counted (Shechter and Karlish, 1980). Fat cell suspensions were pre-incubated for 20 min at 37° C. with increasing concentrations of the inhibitors. Results are expressed in FIG. 2 as the percent of maximal stimulation at the indicated concentrations of inhibitors. In all experiments insulin-stimulated lipogenesis was 4- to 5-fold higher than basal; basal ~2000 cpm per 3×10^5 cells/h; Vinsulin 8000-10,000 cpm per 3×10^5 cells/h.
as §1

LB3 cells = assay: LB3 cell proliferation in response to various mitogens (IL-2, growth hormone, PMA); assay type: cell-based, murine
Method: as §2
Experimental conditions were as described in Example 6 except that lower concentrations of mitogens were applied here (those triggering 50% of maximal proliferation): insulin, interleukin-2 (IL-2), growth hormone and PMA. PMA is an activator of protein kinase C. Protein kinase C in this cell type triggers proliferation by a pathway which is only partially dependent on endogenous tyrosine phosphorylation.

Sequence of insulin receptor tyrosine kinase (InsRTK) (P15127 764-1383 limits assumed): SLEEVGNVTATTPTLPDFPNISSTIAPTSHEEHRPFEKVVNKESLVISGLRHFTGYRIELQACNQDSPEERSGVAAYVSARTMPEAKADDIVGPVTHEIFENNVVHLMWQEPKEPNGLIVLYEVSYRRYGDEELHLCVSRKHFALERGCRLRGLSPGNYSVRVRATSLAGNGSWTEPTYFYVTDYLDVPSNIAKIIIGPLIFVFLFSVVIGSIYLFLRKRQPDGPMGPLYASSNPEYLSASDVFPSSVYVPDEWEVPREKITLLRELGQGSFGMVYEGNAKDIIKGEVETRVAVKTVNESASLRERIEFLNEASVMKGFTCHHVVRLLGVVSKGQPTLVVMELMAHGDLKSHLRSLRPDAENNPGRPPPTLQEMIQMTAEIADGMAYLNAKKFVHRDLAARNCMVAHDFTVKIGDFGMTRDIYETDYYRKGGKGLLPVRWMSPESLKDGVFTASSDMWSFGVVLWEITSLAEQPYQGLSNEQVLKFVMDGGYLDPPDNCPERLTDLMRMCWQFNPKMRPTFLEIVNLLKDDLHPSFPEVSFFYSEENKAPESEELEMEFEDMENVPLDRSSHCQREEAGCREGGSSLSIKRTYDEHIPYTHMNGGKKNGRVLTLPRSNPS
Sequence of insulin receptor tyrosine kinase (InsRTK) (P15127 27-759 partner limits assumed): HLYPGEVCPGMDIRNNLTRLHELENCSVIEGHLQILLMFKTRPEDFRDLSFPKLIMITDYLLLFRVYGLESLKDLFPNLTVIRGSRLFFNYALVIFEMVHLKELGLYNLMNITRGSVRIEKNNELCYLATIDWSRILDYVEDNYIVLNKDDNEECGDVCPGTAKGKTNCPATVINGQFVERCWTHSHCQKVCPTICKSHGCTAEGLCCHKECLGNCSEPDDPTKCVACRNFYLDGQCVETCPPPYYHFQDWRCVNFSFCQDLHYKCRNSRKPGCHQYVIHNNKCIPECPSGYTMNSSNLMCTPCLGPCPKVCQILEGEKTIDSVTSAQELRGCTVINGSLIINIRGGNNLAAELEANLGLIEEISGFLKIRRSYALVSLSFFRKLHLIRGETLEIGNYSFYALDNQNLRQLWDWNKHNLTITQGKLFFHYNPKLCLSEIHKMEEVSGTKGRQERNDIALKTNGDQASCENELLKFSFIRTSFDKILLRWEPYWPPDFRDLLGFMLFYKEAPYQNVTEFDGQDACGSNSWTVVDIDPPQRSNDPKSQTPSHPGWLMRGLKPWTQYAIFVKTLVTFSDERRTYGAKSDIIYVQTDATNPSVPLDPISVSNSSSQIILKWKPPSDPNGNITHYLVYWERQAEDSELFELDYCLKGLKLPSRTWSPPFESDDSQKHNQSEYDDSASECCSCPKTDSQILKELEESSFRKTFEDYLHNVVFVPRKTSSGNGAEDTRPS

## O=C(N[C@@H](Cc1c(Sc2ccc([N+](=O)[O-])cc2[N+](=O)[O-])[nH]c2ccccc12)C(=O)NCCS(=O)(=O)O)OCc1ccccc1 [CBZ-DNPS-TRP-TAU]
[1]
  IC50: 130 µM
[2]; LB3 proliferation vs lipogenesis in rat adipocytes (FIG. 2)
  concentration range lower than that required to inhibit normal metabolic biological effects of insulin: ~200 times
[2]; Mus musculus, T-cell, LB3, insulin-dependent, thymidine added 24 hours later
  IC50: 0.95 µM
solubility; dmf, organic solvent or mixture
  solubility: 20 mM (≈ 12.9 mg/mL)
solubility; dmso, organic solvent or mixture
  solubility: 20 mM (≈ 12.9 mg/mL)
solubility; water
  solubility: ≤ 2 mM
[3]; 200 μM, isoproterenol 1 μM, one hour at 37° C.
  effect in inhibiting isoproterenol-mediated lipolysis: negligible effect
[3]; CBZ-DNPS-TRP-TAU 200 μM plus isoproterenol 1 μM
  Amount of glycerol released: 154 nmol/3 × 10^5 cells/3 h
[3]; Rattus norvegicus, Adipocyte, CBZ-DNPS-TRP-TAU 200 μM plus isoproterenol 1 μM, read-out: Percent lipolysis
  activity at 200 µM: 93%
[4]
  IC50: 45 µM
[5]
  IC50: 170 µM
Rat adipocytes
  Permeability into cell interiors: excellent
LB3 cells; IL-2 at 50% of maximal proliferation
  inhibition of IL-2-dependent proliferation of the T-cell lymphoma: blocks
LB3 cells; PMA at 50% of maximal proliferation
  inhibition of protein kinase C-dependent proliferation: at significantly higher concentrations
LB3 cells; growth hormone at 50% of maximal proliferation
  inhibition of growth hormone-dependent proliferation of the T-cell lymphoma: blocks
